In patent publication US20230130132A1, “PHARMACEUTICAL COMPOSITIONS COMPRISING AMPHIPHILIC PEPTIDES AND METHODS OF USE THEREOF” (BONE SCI. BIO LTD., priority 2020, published 2023):
No end group written: not given here.

Columns and labels:
[1] = pH of the composition; type: physicochemical; details: 5% w/v in deionized water, clear solution
[2] = PFD5 sodium dissolved in HCl: peptide to acid mole ratio for stable hydrogel, pKa; type: physicochemical; details: aqueous HCl solution (hydrogel); 1% (w/v) PFD5; pH at which half of the Asp residues are assumed protonated
Experimental: Different mole ratios of PFD5 sodium to HCl were generated by dissolving the peptide in an HCl solution using a magnetic stirrer. Following mixing for a few minutes, hydrogel formation was tested (Table 2 and FIG. 1A-1B). […] At a 1:6 ratio, the stable hydrogel appeared opaquer.
At a 1:4 ratio, the stable hydrogel appeared opaquer.
At this peptide concentration, the mole ratio of the peptide to acid was determined to be 1:1.67 to afford a stable clear hydrogel (FIG. 1B).

| pH of solution [1] | pKa [2] | Substance |
| --- | --- | --- |
| 1.93 |  | Doxycycline hyclate |
|  | ~5.95 | PDFDFDFDFDFDP [PFD5, Pro-(Asp-Phe)5-Asp-Pro] |
